# Measurements published in ChEMBL document CHEMBL6114992, “Design, synthesis, biological evaluation, and mechanism of action of new pyrazines as anticancer agents in vitro and in vivo” (Bioorg Med Chem, 2025).
# Key:
# Format in all cases: functional, cell-based
# SK-OV-3 = test: Antiproliferative activity against human SK-OV-3 cells assessed as inhibition of cell growth incubated for 72 hrs by MTT assay; details: SK-OV-3, 72 h
# THP-1 = test: Antiproliferative activity against human THP-1 cells assessed as inhibition of cell growth incubated for 72 hrs by MTT assay; details: THP-1, 72 h
# [1] = Antiproliferative activity against human SK-OV-3/Taxol cells assessed as inhibition of cell growth incubated for 72 hrs by MTT assay; details: SK-OV-3, 72 h
# KG-1 = test: Antiproliferative activity against human KG-1 cells assessed as inhibition of cell growth incubated for 72 hrs by MTT assay; details: KG-1, 72 h
# U-937 = test: Antiproliferative activity against human U-937 cells assessed as inhibition of cell growth incubated for 72 hrs by MTT assay; details: U-937, 72 h
Structure (SMILES),IC50 (SK-OV-3) [µM],IC50 (THP-1) [µM],IC50 (U-937) [µM],IC50 [1] [µM],IC50 (KG-1) [µM]
CCc1nccnc1C(=O)/C=C/c1ccccc1Br,7.93,4.57,1.58,8.35,3.58
CC(/C=C/C(=O)c1cnccn1)=C\c1ccccc1,29.6,19.4,22.8,30.6,44.5
O=C(/C=C/c1cccs1)c1cnccn1,> 50,10.1,6.18,> 50,11.9
CCc1nccnc1C(=O)/C=C/C=C/c1ccccc1,33,21.6,7.76,34,19.1
CCc1nccnc1C(=O)/C=C/c1csc2ccccc12,2.06,2.39,1.76,2.29,14.4
O=C(/C=C/c1cc2c(cc1[N+](=O)[O-])OCO2)c1cnccn1,9.99,2.02,6.87,6.57,11
CCc1nccnc1C(=O)/C=C/c1ccccc1N1CCOCC1,4.05,3.44,4.45,3.96,5.46
O=C(/C=C/c1ccccc1)c1cnccn1,> 50,15.3,8.05,> 50,10.6
CCc1nccnc1C(=O)/C=C/c1cc2c(cc1[N+](=O)[O-])OCO2,4.29,3.19,3.39,4.75,9.24
CCc1nccnc1C(=O)/C=C/C=C/CCC=C(C)C,> 50,> 50,39.7,> 50,35.7
CCc1nccnc1C(=O)/C=C/c1cccc(Cl)c1Cl,11.3,14.5,4,11.3,10.5
O=C(/C=C/c1ccc2c(c1)OC(F)(F)O2)c1cnccn1,> 50,20.3,14.4,> 50,17.3
CC(C)(C)c1ccc(/C=C/C(=O)c2cnccn2)cc1,15.5,16,13.7,12.5,13.4
CCc1nccnc1C(=O)/C=C/c1ccccc1[N+](=O)[O-],2.49,1.5,1.46,4.12,3.68
O=C(/C=C/c1cccc([N+](=O)[O-])c1)c1cnccn1,> 50,5.29,8,> 50,10.3
N#Cc1cccc(/C=C/C(=O)c2cnccn2)c1,10.7,9.69,7.41,13.7,5.87
O=C(/C=C/c1cc2ccccc2o1)c1cnccn1,> 50,13.5,10.7,> 50,9.66
O=C(/C=C/c1cccc(Br)c1)c1cnccn1,13.5,11,8.19,17,23.4
CCc1nccnc1C(=O)/C=C/c1ccc(OC)c(OC)c1,6.71,8.36,7.95,7.92,9.45
O=C(/C=C/c1ccccc1Cl)c1cnccn1,7.18,11.8,11.4,10.2,8.34
CC[C@@]1(O)C(=O)OCc2c1cc1n(c2=O)Cc2cc3ccccc3nc2-1 [CAMPTOTHECIN],2.56,–,–,–,–

# Now from value to compound, other results behind:
IC50 (SK-OV-3) [µM],IC50 (THP-1) [µM],IC50 (U-937) [µM],Structure (SMILES),IC50 [1] [µM],IC50 (KG-1) [µM]
3.39,8.07,6.4,CCN(CC)c1ccc(/C=C/C(=O)c2nccnc2C)cc1,8.29,7.14
4.49,0.72,2.08,Cc1nccnc1C(=O)/C=C/c1ccc(C#N)cc1,4.63,1.01
5.1,5.89,3.63,Cc1nccnc1C(=O)/C=C/c1ccc2c(c1)OC(F)(F)O2,6.11,6.52
3.33,17.6,13.5,Cc1nccnc1C(=O)/C=C/c1ccc(F)cc1F,2.99,6.15
4.26,6.22,0.66,CCc1nccnc1C(=O)/C=C/c1cccc(F)c1,6.34,3.47
3.5,1.56,1.58,CCc1nccnc1C(=O)/C=C/c1cccc([N+](=O)[O-])c1,2.67,2.16
5.17,1.79,5.43,Cc1nccnc1C(=O)/C=C/c1ccccc1,5.04,1.64
6.48,8.37,7.06,CSc1ccc(/C=C/C(=O)c2cnccn2)cc1,8.03,5.56
3.42,1.38,1.94,CCc1nccnc1C(=O)/C=C/c1ccc(S(C)(=O)=O)cc1,6.19,3.64
2.53,0.98,0.62,CCc1nccnc1C(=O)/C=C/c1cccc(C#N)c1,2.89,3.91
6.39,9.16,4.66,Cc1nccnc1C(=O)/C=C/c1ccc(Cl)cc1Cl,6.71,7.67
4.52,7.78,6.89,CCc1nccnc1C(=O)/C=C/c1cccc(C)c1,5.6,10.3
2.57,11.5,14.3,Cc1nccnc1C(=O)/C=C/c1ccccc1N1CCOCC1,3.24,5.63
3.08,1.76,2.36,Cc1nccnc1C(=O)/C=C/c1ccccc1Cl,2.94,1.26
10.8,45.4,10.3,Cc1nccnc1C(=O)/C=C/C=C/c1ccc(F)cc1,11.4,27.4
16.9,9.14,9.55,CCc1nccnc1C(=O)/C=C/c1ccc(-c2ccccc2)cc1,16.4,22.6
1.63,1.64,1.58,Cc1nccnc1C(=O)/C=C/c1cccc(Br)c1,1.46,0.08
11,6.02,5.24,CCc1nccnc1C(=O)/C=C/c1ccc(OC)cc1,9.88,22.7
3.23,6.69,3.59,CCc1nccnc1C(=O)/C=C/c1cccc(Br)c1,4.7,9.32
3.83,1.93,2.6,Cc1ccc(/C=C/C(=O)c2nccnc2C)cc1,3.3,3.83
30.7,30.2,26.1,Cc1nccnc1C(=O)/C=C/c1ccc(F)cc1,29.2,21.7
